Assay results reported in ChEMBL document CHEMBL1143987, “Structure and estrogenic activity of new lignans from Iryanthera lancifolia” (2008).
Calls of active or inactive are those of the source. No cut-off for these calls is given here.

What was measured:
Assay type in all cases: functional
MCF7 [1] = assay: Proliferative potency in human MCF7 BUS cells assessed as induction of maximal cell proliferation relative to 17-beta estradiol
MCF7 [2] = assay: Proliferative effect in human MCF7 BUS cells assessed as ratio of increase in cell number in drug treated to control
MCF7 [3] = assay: Proliferative effect in human MCF7 BUS cells assessed as increase in cell number relative to 17-beta estradiol; set-up: concentration or dose not given beside the values
MCF7 [4] = assay: Estrogenic potency in human MCF7 BUS cells assessed as drug level inducing maximal cell proliferation

Structure (SMILES) | Activity (MCF7 [1]) | Activity (MCF7 [2]) | Activity (MCF7 [3]) | Ratio (MCF7 [2]) | MED (MCF7 [4])
COc1ccc([C@H]2Oc3c(OC)cc(C=O)cc3[C@@H]2C)cc1O [PERSEAL F] | 0% | inactive | 0% |  | 
COc1ccc(CCC(=O)c2c(O)cc(O)cc2OC)cc1 | 0.01% |  | 80.7% | 6.6 | 10 µM
C[C@@H]1[C@@H](c2ccc3c(c2)OCO3)c2cc3c(cc2C[C@H]1C)OCO3 [CAGAYANINE] | 0.01% |  | 17.9% | 2.2 | 10 µM
COc1cc(O)cc(O)c1C(=O)CCc1ccc2c(c1)OCO2 | 0.01% |  | 22.1% | 2.5 | 10 µM
C[C@H](Cc1ccc2c(c1)OCO2)[C@@H](C)Cc1ccc2c(c1)OCO2 [MACHILIN A] | 0.01% |  | 13.5% | 1.9 | 10 µM
C[C@H](Cc1ccc(O)cc1)[C@H](C)Cc1ccc2c(c1)OCO2 | 0.01% |  | 68.7% | 5.8 | 10 µM
C[C@@H]([C@H](C)Cc1ccc2c(c1)OCO2)[C@@H](O)c1ccc2c(c1)OCO2 [OLEIFERIN C] | 0.01% |  | 47.8% | 4.4 | 10 µM
COc1cc(C[C@H](C)[C@H](C)Cc2ccc3c(c2)OCO3)ccc1O [AUSTROBAILIGNAN 6] | 0% | inactive | 0% |  | 
C[C@]12CC[C@@H]3c4ccc(O)cc4CC[C@H]3[C@@H]1CC[C@@H]2O [ESTRADIOL] |  |  |  | 8 | 0.001 µM
CCO[C@@H](c1ccc2c(c1)OCO2)[C@@H](C)[C@H](C)Cc1ccc2c(c1)OCO2 | 0.01% |  | 84% | 6.9 | 10 µM
C/C(=C/c1ccc(O)cc1)C(C)Cc1ccc(O)cc1 (stereo unspecified) | 0.01% |  | 73.7% | 6.2 | 10 µM
C/C=C/c1cc(OC)c2c(c1)[C@@H](C)[C@H](c1ccc3c(c1)OCO3)O2 [LICARINE B] | 0% | inactive | 0% |  | 
C/C=C/c1cc(OC)c2c(c1)[C@@H](C)[C@H](c1ccc(O)c(OC)c1)O2 [LICARINE A] | 0.01% |  | 26.4% | 2.8 | 10 µM
Oc1ccc2c(c1)O[C@H](c1ccc3c(c1)OCO3)CC2 | 0.01% |  | 67.1% | 5.7 | 10 µM
C[C@H](Cc1ccc2c(c1)OCO2)[C@H](C)C(=O)c1ccc(O)cc1 | 0.01% |  | 50.1% | 4.51 | 10 µM
C[C@@H]([C@H](C)Cc1ccc2c(c1)OCO2)[C@H](O)c1ccc2c(c1)OCO2 | 0% | inactive | 0% |  | 
COc1cc(C(=O)[C@@H](C)[C@H](C)Cc2ccc3c(c2)OCO3)ccc1O [OLEIFERIN D] | 0.01% |  | 42.8% | 4 | 10 µM
C[C@@H]1[C@@H](c2ccc(O)cc2)c2cc(O)ccc2C[C@H]1C | 0.01% |  | 77.8% | 6.4 | 10 µM
